Results taken from patent publication US20230390371A1, “ANTI-TUMOR IMMUNITY INDUCES THE PRESENTATION OF ABERRANT PEPTIDES” (STICHTING HET NEDERLANDS KANKER INSTITUUT-ANTONI VAN …, priority 2020, published 2023).
Entries after “also recorded” stand apart in the source; their conditions may differ. Where a SMILES comes first, the peptide text is derived from it. The star is where a group is joined. Cbz = O=C(OCc1ccccc1)*

Columns and labels:
Type in all cases: cell-based, human
[1] = tested on: 12T cells; assay: Ribosome profiling with diricore / bump analysis; settings: IFNγ+IDOi
Text: Preprocessing of FASTQ files consisted of adapter removal using cutadapt (available at doi.org/10.14806/ej.17.1.200) with the parameters (--quality-base=33-O7-e 0.15-m 20-q 5) and removal of rRNA and tRNA contaminants by means of alignment against a reference (rRNA reference data from GENCODE^61 v19: rRNA, MT_RNA, rRNA_pseudogene, and tRNA reference data from GtRNAdb) using bowtie2^62 with parameters (--seed 42−p1—local).
The actual alignment of pre-processed FASTQ files was done with TopHat2^63 and Bowtie2^62 against GRCh37/ hg19 and GENCODE v19/BASIC transcript with Ensembl coordinates using parameters (seed 42-n 2-m 1 --no-novel-juncs --no-novel-indels --no-coverage-search --segment-length 25). In a subsequent step the primary aligned reads filtered for a minimum mapping quality of 10. […]
The reads (FASTQ) from Riboseq experiments were aligned to human transcript assembly (gencode v19) after removal of low quality reads and the reads that align to tRNA and rRNA (refer methods section—Diricore). […]
BAM files were converted to BED using BEDTOOLS 68 and later file formats were edited using PERL scripts. Each gene was divided into 100 windows of equal length, and read (separately for every sample) at each window were quantified using BEDTOOLS. The array of reads, logged (base 2), were normalized between 0 to 1. […]

[2] = tested on: MD55A3 melanoma cells; assay: V5-ATF4(1-63)-His frameshift reporter, His-tag pulldown and V5-tag immunoblotting; settings: IFNγ+IDOi, MD55A3 reporter cells
Text: FIG. 3: W-Bumps are associated with disordered out-of-frame peptides, and shortage in tryptophan leads to frameshifting events. • (a) Bar-plots depicting total occurrences of alpha-helices, beta-sheets and turns for tryptophan-containing peptide sequences corresponding to W-Bumps (left) and all remaining peptide sequences (middle), and the difference in percentages (right). […] Tryptophan shortage, on the other hand, can lead to stalling on the tryptophan codon (bottom left panel), or could in theory induce frameshifting events, leading to aberrant peptide production (lower right panel). Since secondary structure of growing polypeptide chains is attained in the lower tunnel of the ribosome, the loss of an a-helical secondary structure in this tunnel could hamper ribosomal progression. (c) Line-plots depicting the probability of disorderedness of peptide sequences. The position of the tryptophan is indicated by the dashed line. […] The green line represents the average probability of disorderedness of all peptides (‘All tryptophan codons’, n=36508). A group of outlier candidates that show relatively ordered out-of-frame peptide sequences were selected for comparisons (‘Selected tryptophan codons’, n=94, red). (d) Line-plots depicting mean frequency of RPFs at single nucleotide resolution across all tryptophans (green) and the selected outlier set (red) from panel 3c. […]

[3] = tested on: MD55A3 cells; assay: Proteomic analysis of tryptophan-containing proteins with IFNγ and proteasome inhibition; settings: combined treatment with IFNγ and MG132
Experimental: Frozen MD55A3 cell pellets were lysed, reduced and alkylated in heated guanidine (GuHCl) lysis buffer as described by Jersie-Christensen et al.^70. Proteins were digested with Lys-C (Wako) for 2 h at 37° C., enzyme/substrate ratio 1:100. The mixture was then diluted to 2 M GuHCl and digested overnight at 37° C. with trypsin (Sigma) in enzyme/substrate ratio 1:50. Digestion was quenched by the addition of TFA (final concentration 1%), after which the peptides were desalted on a Sep-Pak C18 cartridge (Waters, Massachusetts, USA). Samples were vacuum dried and stored at −80° C. until LC-MS/MS analysis.
Peptides were reconstituted in 2% formic acid and analyzed by nano LC-MS/MS on an Q Exactive HF-X Hybrid Quadrupole-Orbitrap Mass Spectrometer equipped with an EASY-NLC 1200 system (Thermo Scientific). […]
RAW files were analyzed by Proteome Discoverer (version 2.3.0.523, Thermo Scientific) using standard settings. […] Differentially expressed proteins were determined using a t-test (threshold: FDR 1% or FDR 5% and S0: 0.13). […]
To look at the downstream consequences of W-Bump formation, we assessed the impact of W-Bumps on protein expression by proteomic analysis following IFNγ induction. We first analyzed the differential protein expression in IFNγ-treated versus control cells (data not shown) and grouped proteins according to the number of tryptophan residues they contain (FIG. 2l). […]

[4] = tested on: peripheral blood mononuclear cells from healthy donors; assay: Immunogenicity in peripheral blood mononuclear cells from healthy donors

**Q.** Which results are given for `Cn1cc(C[C@H](N)C(=O)O)c2ccccc21` [IDOi, 1-Methyl-L-tryptophan]?
**A.** accumulation of RPFs at the W-Bumps region / bumps [1]: rescued; also recorded: completely abolished; global redistribution of RPFs towards the translation initiation sites and enrichment of tryptophan codon signal at A-site [1]: negated; IFNγ-induced frameshifting [2]: prevented

**Q.** With `CC(C)C[C@@H](C=O)NC(=O)[C@H](CC(C)C)NC(=O)[C@H](CC(C)C)NC(=O)OCc1ccccc1` [MG132] (Cbz-Leu-Leu-Leu-aldehyde) as the molecule, how does the “restoration of reduced levels of high-tryptophan containing proteins” value [3] read?
**A.** did not restore

**Q.** For “GLLETHPALLL (SRSF3-based peptide) [SEQ ID NO:62, SRSF3-derived peptide presented by MDA-MB-231]”, which immunogenicity [4] is on record?
**A.** showed immunogenicity

**Q.** “TLVEDLLEV (RFX1-based peptide) [SEQ ID NO:58, RFX1-derived peptide presented by MDA-MB-231]” was tested. Which immunogenicity [4] did it give?
**A.** showed immunogenicity

**Q.** How did the immunogenicity [4] turn out when “TVIGTLLEI (RHOBTB3-based peptide) [SEQ ID NO:61, RHOBTB3-derived peptide presented by MDA-MB-231]” was run?
**A.** showed immunogenicity
